“Also recorded” adds a separate entry of the source.

In experiment [1] the test system is 48/80-induced scratching (mast cell degranulation). The experiment in a line: Compound 48/80-induced scratching in mice. The format is in vivo, mouse. To be noted: topical, single dose. Here is the method:
The methods include the following. Itching in mice was induced with DNFB as previously described. Additional studies were done with 48/80 model (an inducer of mast cell degranulation). 48/80 was given subcutaneously (30 mg per kg).

Experiment [2] deals with h-NAAA (Homo sapiens (Human), UniProt Q02083). Briefly: Fluorogenic h-NAAA assay. The format is biochemical. Here is the method: (§1) The assay was run in Optiplate 96-wells black plates, in a total reaction volume of 200 mL. NAAA protein preparations (4 ng) were pre-incubated for 10 minutes with various concentrations of test compounds or vehicle control (5% DMSO) in 100 mM citrate/phosphate buffer (pH 4.5) containing 3.0 mM DTT, 0.1% Triton X-100, 0.05% BSA, 150 mM NaCl. N-(4-methyl-2-oxo-chromen-7-yl)-hexadecanamide was used as a substrate (5.0 μM) and the reaction carried over for 30 minutes at 37° C. Fluorescence in the samples was quantified in a Perkin Elmer Envision plate reader using an excitation wavelength of 360 nm and emission 460 nm. IC50 values were calculated by non-linear regression analysis of log [concentration]/inhibition curves using GraphPad Prism 5 (GraphPad Software Inc., CA—USA) applying a standard slope curve fitting.
as §1, with “μL.” for “mL.”, “preparation (4.0 μg) was” for “preparations (4 ng) were”, “min” for “minutes”, “The” for “Fluorescence in the”, “were then read” for “was quantified”

Experiment [3] has as its system carrageenan-induced paw edema and hyperalgesia. Briefly: Carrageenan-induced inflammatory responses in mice. The format is in vivo, mouse. The method, then: The Methods include the following: Carragenan (1%) was injected into the left hind paw of Swiss albino mice. Paw edema was measured using a plethysmomether. Cutaneous hyperalgesia (thermal) was assesed by the plantar test (see Hargreaves K, et a 1 (1988), Pain 32: 77-88). Compound 6 was administered topically.

The target in experiment [4] is r-NAAA (Rattus norvegicus (Rat), UniProt Q5KTC7). Briefly: r-NAAA inhibition, rat lung lysosomal NAAA preparation, UPLC/MS. Format: biochemical. The essentials: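 Enzyme was a lysosomal fraction from male Sprague-Dawley rat lung, preincubated with compound 30 min at 37 °C in NaH2PO4/citrate pH 4.5, 1% Triton-X, 3 mM DTT. Heptadecenoylethanolamide (50 μM) was hydrolysed 30 min at 37 °C. Heptadecenoic acid was quantified by UPLC/MS against vehicle, and IC50 fitted by non-linear regression.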

Where [5] appears, read: compound 6 30% topical, antagonists 1 μg/paw intraplantar.

Chain of h-NAAA (Q02083 29-359): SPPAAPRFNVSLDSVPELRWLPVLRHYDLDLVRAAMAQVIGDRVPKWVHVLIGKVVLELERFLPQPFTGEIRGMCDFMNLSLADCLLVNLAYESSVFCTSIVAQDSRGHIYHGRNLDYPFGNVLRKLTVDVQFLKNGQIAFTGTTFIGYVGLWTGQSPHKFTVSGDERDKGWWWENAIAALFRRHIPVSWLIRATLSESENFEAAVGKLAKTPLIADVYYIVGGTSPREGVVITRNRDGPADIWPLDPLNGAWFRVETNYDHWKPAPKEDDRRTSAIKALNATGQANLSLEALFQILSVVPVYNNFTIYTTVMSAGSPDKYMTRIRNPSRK
Chain of r-NAAA (Q5KTC7 34-362): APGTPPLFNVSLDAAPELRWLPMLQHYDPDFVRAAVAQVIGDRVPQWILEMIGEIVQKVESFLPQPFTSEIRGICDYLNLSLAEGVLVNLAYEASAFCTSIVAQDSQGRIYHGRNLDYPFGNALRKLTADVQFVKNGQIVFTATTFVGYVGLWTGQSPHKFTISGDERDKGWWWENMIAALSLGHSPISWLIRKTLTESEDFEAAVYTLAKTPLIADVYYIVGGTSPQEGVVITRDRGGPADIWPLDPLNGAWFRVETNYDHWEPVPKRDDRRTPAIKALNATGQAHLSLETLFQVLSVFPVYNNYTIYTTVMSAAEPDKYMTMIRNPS

As to `C[C@@H]1OC(=O)[C@@H]1NC(=O)OCCCCCc1ccccc1` [Example 6, 5-phenylpentyl-[(2S,3R)-2-methyl-4-oxooxetan-3-yl]-carbamate], in experiment [1], the “Dose of maximal effect, 48/80-induced scratching” value was 1% and the “Lowest effective dose, 48/80-induced scratching” value was determined as 0.01%. In experiment [1] (48/80 30 mg per kg s.c.), the 48/80-induced scratching result was “prevents 48/80-induced scratching”. For the same compound, the IC50 in experiment [2] came out at 14 nM. Moreover, in experiment [3] (setting [5]), the “Anti-inflammatory effect on cutaneous hyperalgesia with receptor antagonists” value is given as “blocked by PPAR-α antagonists, but not by CB1 or CB2 receptor antagonists” and the “Anti-inflammatory effect on paw edema with receptor antagonists” value was “blocked by PPAR-α antagonists, but not by CB1 or CB2 cannabinoid receptor antagonists”. The Carrageenan-induced paw edema entry in experiment [3] (mice, topical) is “marked anti-inflammatory”. Moreover, the Carrageenan-induced hyperalgesia entry in experiment [3] (mice, topical, 90 min after carrageenan) is listed as “dose-dependently reduces carrageenan-induced hyperalgesia; also recorded: anti-hyperalgesic effects”. For the same compound, the “Anti-inflammatory effects on paw edema and cutaneous hyperalgesia in mice lacking PPAR-α” value in experiment [3] (topical, 90 min after carrageenan) is listed as “absent in mice lacking PPAR-α”. Moreover, half-maximal inhibition in experiment [4] (IC50) required 50 nM.

(Values after US9353075B2, “Disubstituted beta-lactones as inhibitors of N-acylethanolamine acid amidase (NAAA)” (The Regents of the University of California, priority 2011, dated 2016).)
